Source: patent publication US20260234116A1, “CYTOTOXIC EPOXYKETONE COMPOUNDS, PRECURSORS, COMPOSITIONS, AND METHODS OF USE” (Memorial Sloan-Kettering Cancer Center, priority 2023, published 2026)
Like-named read-outs stand apart in the source and are kept apart here.

Tests used:
Raji B-cell lymphoma = test: Cytotoxicity of epoxyketones, CellTitre-Glo, 48 h; format: cell-based; conditions: Homo sapiens
Procedure: (§1) Cytotoxicity Assays. Cancer cell lines (ATCC: U266 multiple myeloma, EL4 mouse lymphoma, Raji B-cell lymphoma) were cultured in Roswell Park Memorial Institute (RPMI) medium supplemented with 10% fetal bovine serum (FBS), 2 mM L-glutamine, 100 IU/mL penicillin, 100 μg/mL nonessential amino acids, 1 mM sodium pyruvate, and 57 μM β-mercaptoethanol. Cells (90 μL) were seeded in the inner 60 wells of an opaque-wall, clear flat-bottom 96-well plate (Corning/Falcon, 351177) at 20,000 cells per well. The outer perimeter wells were filled with 200 μL PBS to reduce evaporation in the central 60 wells. Epoxyketones 12 (20 mM in DMSO) were diluted in RPMI media to 1 mM (5% DMSO final concentration). Each epoxyketone was then diluted log-fold into 10 concentrations with 5% DMSO in RPMI. Each epoxyketone solution (10 μL) was added to the cells for a 0.5% DMSO final concentration across all wells and final epoxyketone concentrations of 100-0.005 μM. Negative control wells were treated with 10 μL of 5% DMSO in RPMI. Cells were incubated with compounds for 48 h, then cytotoxicity was measured with the CellTitre-Glo assay (Promega G9241).

EL4 mouse lymphoma = test: Cytotoxicity of epoxyketones, CellTitre-Glo, 48 h; format: cell-based; conditions: EL4, 48 h
Procedure: as §1

U266 multiple myeloma = test: Cytotoxicity of epoxyketones, CellTitre-Glo, 48 h; format: cell-based; conditions: Homo sapiens, U-266, U266, 48 h
Procedure: as §1

[1] = tested on: chymotrypsin-like activity of the proteasome, Jurkat cell lysates; test: Proteasome inhibition assay (abcam Proteasome Activity Assay Kit); format: biochemical; conditions: 10 μM concentration, 1 h at 37° C.
Procedure: Epoxyketones 12 were analyzed for proteasome inhibition using a Proteasome Activity Assay Kit (abcam ab107921). The protocol was followed as described by the manufacturer, except that the proteasome sample supplied in the kit was diluted by 10-fold more than indicated in the manual to increase the number of samples that could be analyzed per kit. Thus, the supplied proteasome sample was resuspended in 100 μL ddH2O, then further diluted with 900 μL of the supplied assay buffer. The supplied proteasome inhibitor, MG-132 (benzyl [(2S)-4-methyl-1-{[(2S)-4-methyl-1-{[(2S)-4-methyl-1-oxopentan-2-yl]amino}-1-oxopentan-2-yl]amino}-1-oxopentan-2-yl]carbamate; structure illustrated below), was also diluted 10-fold to a working concentration of 1 mM in DMSO. The epoxyketones 12 and epoxomicin positive control (Selleck Chemicals) were also diluted to working stocks of 1 mM in DMSO. Proteasome samples (99 μL) were added to a white, opaque 96-well plate (PerkinElmer, OptiPlate-96) and treated with 1 μL of compound solutions (10 μM final concentration). Samples were incubated for 1 h at 37° C. then analyzed for fluorescence (λ^ex 350 nm, λ^em 440 nm) on a plate reader (Molecular Devices Spectramax M3). Three separate assay kits were used as biological replicates. Data were normalized to the average signal from the no-inhibitor negative control. […]

EL4 lymphoma cells = conditions: reported (prepared by total synthesis); cited from earlier work

For `CC(C)CCCCC(=O)N[C@@H](CO)C(=O)N[C@@H](CC(C)C)C(=O)[C@@]1(C)CO1` [Compound 12a, N-[(1S)-2-Hydroxy-1-{[(2S)-4-methyl-1-[(2R)-2-methyloxiran-2-yl]-1-oxopentan-2-yl]carbamoyl}ethyl]-6-methylheptanamide], the IC50 (Raji B-cell lymphoma; read-out: IC50) was 200 nM, the IC50 (Raji B-cell lymphoma; read-out: log IC50 (converted)) was 195 nM and the IC50 (EL4 mouse lymphoma; read-out: IC50) was 440 nM. The IC50 (EL4 mouse lymphoma; read-out: log IC50 (converted)) was 407 nM, the IC50 (U266 multiple myeloma; read-out: IC50) was 230 nM and the IC50 (U266 multiple myeloma; read-out: log IC50 (converted)) was 229 nM. For the same compound, the “inhibition of proteasome activity” value [1] was “at a level comparable to that of epoxomicin” and the IC50 (EL4 lymphoma cells) was 260 ± 50 nM.
